Test results taken from US20250059196A1 (SHANGHAI HANSOH BIOMEDICAL CO., LTD., priority 2021, published 2025).

Key:
[1] = tested on: OCI-LY3 cell subcutaneous xenograft tumor; assay: Tumor inhibition in OCI-LY3 subcutaneous xenograft NOG mouse model of human diffuse large B-cell lymphoma; assay type: in vivo; conditions: NOG mice, 30 mg, BID × 4 weeks, oral; for Weight Day 28: in g (unit assumed); for Tumor volume (Mean ± SD) Day 28: vehicle group 1274 ± 82
Method: The efficacy of test drugs was evaluated in OCI-LY3 mouse subcutaneous tumor model of human diffuse large B-cell lymphoma
• 1. Animal: NOG mice, female, 6-8 weeks old, weighing 18-22 grams, a total of 65 mice were needed. Provided by Beijing Vital River Laboratory Animal Technology Co., Ltd. or other qualified suppliers. • 2. Cell: Human diffuse large B-cell lymphoma OCI-LY3 cells were cultured in vitro as monolayers and conventional digestion treatment with trypsin-EDTA was carried out twice a week for passage. When the cell confluence was 80%-90% and the number reached the required number, cells were collected, counted, and inoculated. • 3. Grouping for vaccination: Cells (5×10^6 cells+Matrigel/0.2 ml) were inoculated subcutaneously into each mouse. The growth of animals and transplanted tumors were observed regularly. When the tumor grew to a volume of about 150-200 mm^3, the tumor volume of each mouse was calculated, and the mice were divided into random groups according to tumor volume and body weight. The calculation formula of tumor volume was V=0.5a×b^2, wherein a and b represented the long and short diameters of the tumor, respectively. • 4. Administration: According to the grouping results, the test drug was started to be administered (administration method: oral administration; Administration volume: 10 mL/kg; Administration frequency: 2 times/day; Administration cycle: 28 days; Vehicle: 10% solutol HS15-0.25% CMC-Na). Tumors were measured and weighed twice a week after starting administration of test drugs. • 5. Animals were euthanized after the experiment. • 6. Data processing: The tumor inhibitory efficacy of the compound was evaluated by TGI (%) or relative tumor proliferation rate T/C (%). TGI (%) reflects the tumor growth inhibition rate. Calculation of TGI (%): TGI (%)=[(1−(average tumor volume at the end of administration in a treatment group−average tumor volume at the beginning of administration in the treatment group))/(average tumor volume at the end of administration in the solvent control group−average tumor volume at the beginning of administration in the solvent control group)]×100%.
Relative tumor proliferation rate T/C (%): The calculation formulas are as follows: T/C %=TRTV/CRTV×100% (TRTV: RTV of treatment group; CRTV: RTV of negative control group). The relative tumor volume (RTV) was calculated based on the results of tumor measurement. The calculation formula is RTV=Vt/V0, where V0 is the average tumor volume measured at grouping for administration (i.e. d0), Vt is the average tumor volume at a certain measurement, and TRTV and CRTV take the data on the same day.
After the experiment, the tumor weight was measured, and the T/Cweight percentage was calculated. Tweight and Cweight represented the tumor weight of the administration group and the vehicle control group, respectively.
Remarks: The data in parentheses indicate the tumor volume corresponding to the vehicle group (i.e., the control group) at the corresponding time in this example.

[2] = tested on: OCI-Ly3 cells; assay: Inhibition of proliferation of OCI-Ly3 cells (CellTiter-Glo); assay type: cell-based, human; conditions: Homo sapiens, 96 h incubation, read-out: Inhibition test of proliferation of OCI-Ly3 cells IC50
Method in brief: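 OCI-Ly3 cells were plated and dosed the next day with 9 concentrations in 3-fold dilutions from 1000 nM to 0.15 nM. Cells were incubated 96 h, and viability was read by CellTiter-Glo luminescence. IC50 was fitted by four-parameter variable-slope log(inhibitor)-response regression.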

[3] = Caco-2 bidirectional permeability test; conditions: human, Caco-2
Method: The purpose of this experiment is to test the bidirectional permeability of the compound through the Caco-2 cell model and evaluate whether the compound is transported by efflux transporters.
Liquid chromatography-mass spectrometer, centrifuge, vortexer, pipette, 96-well test plate (HTS Transwell Plate), acetonitrile solution containing internal standard, Caco-2 cells (ATCC), Hank's balance solution (HBSS), fluorescent yellow (LY), dimethyl sulfoxide (DMSO).
108 μL of transport buffer (HBSS containing 10 μM of the example compound) was added to the administration end of A to B. • b. 300 μL of transport buffer (HBSS containing DMSO) was added to the receiving end of A to B. • c. 300 μL of transport buffer (HBSS containing 10 μM example compound) was added to the administration end of A to B. • d. 108 μL of transport buffer (HBSS containing DMSO) was added to the receiving end of A to B. • e. incubation was performed for 90 min. • d. a sample was taken, processed and detected with mass spectrometry.
• Instruments: Liquid Chromatography; • Chromatographic column: Waters XSelect HSS T3 2.5 μm (2.1×50 mm); • Mobile phase: Phase A: 0.1% formic acid in pure water; Phase B: 0.1% formic acid in acetonitrile.
• Instruments: AP16500+liquid chromatography-mass spectrometer; • The ion source is electrospray ionization source (ESI); • The detection method is positive ion detection;
The scanning method is selected reaction monitoring (MRM).

Row | SMILES | TGI (%) Day 28 [1] [%] | ΔT/ΔC(%) Day 28 [1] [%] | Weight Day 28 [1] | Tumor volume (Mean ± SD) Day 28 [1] | IC50 [2] [nM] | Papp A→B at 90 min, 10 µM [3] [×10⁻⁶ cm/s] | Papp B→A at 90 min, 10 µM [3] [×10⁻⁶ cm/s] | efflux ratio at 90 min, 10 µM [3]
1 | O=C(Nc1cnc(-n2nccn2)c(C(F)(F)F)c1)c1cnn(-c2ccc3c4c(cccc24)C(=O)N3)c1C(F)(F)F [Example 18, N-(6-(2H-1,2,3-triazol-2-yl)-5-trifluoromethylpyridin-3-yl)-1-(2-oxo-1,2-dihydrobenzo[cd]indol-6-yl)-5-trifluoromethyl-1H-pyrazole-4-carboxamide] | 62.73 | 43.82 | 21.03 ± 0.42 | 635 ± 46 (1274 ± 82) mm^3 | 88 |  |  | 
2 | O=C(Nc1ccc(-n2nccn2)c(Cl)c1)c1cnn(-c2ccc3c4c(cccc24)C(=O)N3)c1C(F)(F)F [Example 53, N-(3-chloro-4-(2H-1,2,3-triazol-2-yl)phenyl)-1-(2-oxo-1,2-dihydrobenzo[cd]indol-6-yl)-5-(trifluoromethyl)-1H-pyrazole-4-carboxamide] | 67.23 | 41.76 | 20.06 ± 1.08 | 519 ± 89 (1274 ± 82) mm^3 | 101 | 1.58 | 4.68 | 2.95
3 | O=C(Nc1ccnc(C(F)(F)F)c1)c1cnn(-c2ccc3c4c(cccc24)C(=O)N3)c1C1CC1 [Example 55, 5-cyclopropyl-1-(2-oxo-1,2-dihydrobenzo[cd]indol-6-yl)-N-(2-(trifluoromethyl)pyridin-4-yl)-1H-pyrazole-4-carboxamide] | 87.99 | 22.76 | 21.15 ± 0.72 | 287 ± 25 (1274 ± 82) mm^3 | 211 | 2.09 | 4.08 | 1.97
